Key:
ALAS1 target site = assay: Base editing in liver by LNP-delivered ABE mRNA and sgRNA, targeted deep sequencing; assay type: in vivo; settings: LNP with the ionizable lipid, ABE mRNA + sgRNA targeting ALAS1 1:1; tail vein injection, Balb/c mice; 0.05 mg/kg; tissues four to six days post-dose
Procedure: (§1) Lipid nanoparticle components were dissolved in 100% ethanol at specified lipid component molar ratios. mRNA encoding an adenine base editor and a chemically-modified sgRNA was dissolved at a mass ratio of 1:1 in 50 mM citrate, pH 4.0, resulting in a concentration of NA cargo of approximately 0.1 mg/mL.
(§2) LNP preparations were formulated with molar ratios of 47.5% Ionizable Lipid: 40% Cholesterol: 2.5% PEG2000-DMG: 10% DSPC total lipid to NA molar ratio of 6 to 12.
(§3) LNP preparations were formed by microfluidic mixing of the lipid and NA solutions using Precision Nanosystems NanoAssemblr Ignite series Instruments, according to the manufacturer's protocol.
(§4) A 3:1 ratio of aqueous to organic solvent was maintained during mixing using differential flow rates. After mixing, LNP preparations were collected and diluted in TBS (approximately 7:1 v/v), and further buffer exchange was conducted using dialysis in TBS at 4° C. for 8 to 24 hours against a 20 kDa filter. After this initial dialysis, each individual LNP preparation was characterized via dynamic light scattering (DLS) to measure size and polydispersity. pKa of a subpopulation of LNP preparations was measured via TNS assay.
Male Balb/C mice aged approximately 8-12 weeks were used in the experiments described herein. […]
Age-matched mice were also used to administer vehicle (1×TBS) via tail vein injection as a control. Four to six days post-dose, tissues including liver, spleen, and bone marrow were collected. Base editing was determined by performing targeted deep sequencing analysis at the ALAS1 target site using extracted genomic DNA. Genomic DNA was isolated and fragmented and adapter-ligated using the Nextera DNA Flex Library Prep Kit (Illumina) using the 96-well plate Nextera indexing primers (Illumina), according to the manufacturer's instructions. Library size and concentration was confirmed by Fragment Analyzer (Agilent) and analyzed for whole genome sequencing using an Illumina HiSeq.

[1] = Encapsulation efficiency of LNP preparations (Ribogreen assay; Qubit, unlysed and lysed LNPs); assay type: physicochemical; settings: LNP preparation with the ionizable lipid, ABE mRNA:sgRNA 1:1, except 7-1, 7-2, 7-6, 7-10 (unlysed and lysed LNPs, Qubit)
Procedure: as §1, §2, §3
With the exception of LNPs comprising ionizable lipids 7-1, 7-2, 7-6, and 7-10, RNA concentration and encapsulation efficiency were determined by Ribogreen assay (BioTek Synergy LX plate reader). For LNPs comprising ionizable lipids 7-1, 7-2, 7-6, and 7-10, RNA concentration was determined by Qubit microRNA kit (for siRNA) or HS RNA kit (for mRNA) per manufacturer's instructions, and encapsulation efficiency was determined by measuring unlysed and lysed LNPs.

[2] = LNP hydrodynamic diameter and polydispersity index by dynamic light scattering (DLS); assay type: physicochemical; settings: for Diameter (nm): hydrodynamic diameter of the LNP preparation with the ionizable lipid; for PDI: polydispersity index of the LNP preparation with the ionizable lipid
Procedure: as §4
DLS-LNP preparation hydrodynamic diameter and polydispersity index (PDI) was measured using high throughput dynamic light scattering (DLS) (DynaPro plate reader II, Wyatt). LNP preparations were diluted 1×PBS to an appropriate concentration and analyzed.

For CC/C=C\CCCCOC(CCC(=O)OCC(COC(=O)CCCCCC(=O)OCC(CCCC)CCCCCC)COC(=O)CCC(CCCCCC)OC(=O)NCCN1CCCC1)OCCCC/C=C\CC (centres unmarked) [Compound 7-32, 1-(3-((4,4-bis(((Z)-oct-5-en-1-yl)oxy)butanoyl)oxy)-2-(((4-(((2-(pyrrolidin-1-yl)ethyl)carbamoyl)oxy)decanoyl)oxy)methyl)propyl) 7-(2-butyloctyl) heptanedioate], the “% Editing in Liver (0.05 mpk)” value (ALAS1 target site) was 0.6%, the “Encapsulation Efficiency (%)” value [1] was 96.1% and the “Diameter (nm)” value [2] was 53.30 nm. The PDI [2] was 0.10.

For C=CCCCCCC(CCCCCC=C)OC(=O)CCCCCC(=O)OCC(COC(=O)CCC(CCCCC)OC(=O)NCCN1CCCC1)COC(=O)CCC(OCCCC/C=C\CC)OCCCC/C=C\CC (centres unmarked) [Compound 7-33, 1-(3-((4,4-bis(((Z)-oct-5-en-1-yl)oxy)butanoyl)oxy)-2-(((4-(((2-(pyrrolidin-1-yl)ethyl)carbamoyl)oxy)nonanoyl)oxy)methyl)propyl) 7-(pentadeca-1,14-dien-8-yl) heptanedioate], the “% Editing in Liver (0.05 mpk)” value (ALAS1 target site) was 6.5%, the “Encapsulation Efficiency (%)” value [1] was 96.7% and the “Diameter (nm)” value [2] was 64.85 nm. The PDI [2] was 0.11.

In the case of C=CCCCCCC(CCCCCC=C)OC(=O)CCCCCC(=O)OCC(COC(=O)CCC(CCCCCC)OC(=O)NCCN1CCCC1)COC(=O)CCC(OCCCC/C=C\CC)OCCCC/C=C\CC (centres unmarked) [Compound 7-34, 1-(3-((4,4-bis(((Z)-oct-5-en-1-yl)oxy)butanoyl)oxy)-2-(((4-(((2-(pyrrolidin-1-yl)ethyl)carbamoyl)oxy)decanoyl)oxy)methyl)propyl) 7-(pentadeca-1,14-dien-8-yl) heptanedioate], the “% Editing in Liver (0.05 mpk)” value (ALAS1 target site) is reported as 1.6%, the “Encapsulation Efficiency (%)” value [1] is reported as 98.1% and the “Diameter (nm)” value [2] is reported as 54.35 nm. It also gave a PDI [2] of 0.05.

For CC/C=C\CCCCOC(CCC(=O)OCC(COC(=O)CCCCCC(=O)OC(CCCCCCC)CCCCCCC)COC(=O)CCC(CCCCC)OC(=O)NCCN1CCCC1)OCCCC/C=C\CC (centres unmarked) [Compound 7-35, 1-(3-((4,4-bis(((Z)-oct-5-en-1-yl)oxy)butanoyl)oxy)-2-(((4-(((2-(pyrrolidin-1-yl)ethyl)carbamoyl)oxy)nonanoyl)oxy)methyl)propyl) 7-(pentadecan-8-yl) heptanedioate], the “% Editing in Liver (0.05 mpk)” value (ALAS1 target site) was 3.1%, the “Encapsulation Efficiency (%)” value [1] was 96.2% and the “Diameter (nm)” value [2] was 64.25 nm. For the same compound, the PDI [2] was 0.12.

With CC/C=C\CCCCOC(CCC(=O)OCC(COC(=O)CCCCCC(=O)OC(CCCCCCC)CCCCCCC)COC(=O)CCC(CCCCCC)OC(=O)NCCN1CCCC1)OCCCC/C=C\CC (centres unmarked) [Compound 7-36, 1-(3-((4,4-bis(((Z)-oct-5-en-1-yl)oxy)butanoyl)oxy)-2-(((4-(((2-(pyrrolidin-1-yl)ethyl)carbamoyl)oxy)decanoyl)oxy)methyl)propyl) 7-(pentadecan-8-yl) heptanedioate] the “% Editing in Liver (0.05 mpk)” value (ALAS1 target site) was 1.5%, the “Encapsulation Efficiency (%)” value [1] was 98.2% and the “Diameter (nm)” value [2] was 53.80 nm. For the same compound, the PDI [2] was 0.04.

With CC/C=C\CCCCOC(CCC(=O)OCC(COC(=O)CCC(CCCCC)OC(=O)NCCN1CCCC1)COC(=O)CCC(OCCCC/C=C\CC)OCCCC/C=C\CC)OCCCC/C=C\CC (centres unmarked) [Compound 7-37, 2-(((4-(((2-(pyrrolidin-1-yl)ethyl)carbamoyl)oxy)nonanoyl)oxy)methyl)propane-1,3-diyl bis(4,4-bis(((Z)-oct-5-en-1-yl)oxy)butanoate)] the “% Editing in Liver (0.05 mpk)” value (ALAS1 target site) was 12.0%, the “Encapsulation Efficiency (%)” value [1] was 94.7% and the “Diameter (nm)” value [2] was 66.20 nm. The PDI [2] was 0.12.

In the case of CC/C=C\CCCCOC(CCC(=O)OCC(COC(=O)CCC(CCCCCC)OC(=O)NCCN1CCCC1)COC(=O)CCC(OCCCC/C=C\CC)OCCCC/C=C\CC)OCCCC/C=C\CC (centres unmarked) [Compound 7-38, 2-(((4-(((2-(pyrrolidin-1-yl)ethyl)carbamoyl)oxy)decanoyl)oxy)methyl)propane-1,3-diyl bis(4,4-bis(((Z)-oct-5-en-1-yl)oxy)butanoate)], the “% Editing in Liver (0.05 mpk)” value (ALAS1 target site) is reported as 9.4%, the “Encapsulation Efficiency (%)” value [1] is reported as 99.1% and the “Diameter (nm)” value [2] is reported as 60.25 nm. It also gave a PDI [2] of 0.06.

For C=CCCCCCC(CCCCCC=C)COC(=O)CCCCC(=O)OCC(COC(=O)CCC(CCCCCC)OC(=O)NCCN1CCCC1)COC(=O)CCC(OCCCC/C=C\CC)OCCCC/C=C\CC (centres unmarked) [Compound 7-39, 3-((4,4-bis(((Z)-oct-5-en-1-yl)oxy)butanoyl)oxy)-2-(((4-(((2-(pyrrolidin-1-yl)ethyl)carbamoyl)oxy)decanoyl)oxy)methyl)propyl (2-(hept-6-en-1-yl)non-8-en-1-yl) adipate], the “% Editing in Liver (0.05 mpk)” value (ALAS1 target site) was 1.4%, the “Encapsulation Efficiency (%)” value [1] was 97.4% and the “Diameter (nm)” value [2] was 53.4 nm. It also gave a PDI [2] of 0.08.

With CC/C=C\CCCCOC(CCC(=O)OCC(COC(=O)CCCCCCOC(=O)C(CCCC)CCCCCC)COC(=O)CCC(CCCCCC)OC(=O)NCCN(C)C)OCCCC/C=C\CC (centres unmarked) [Compound 7-40, 3-((4,4-bis(((Z)-oct-5-en-1-yl)oxy)butanoyl)oxy)-2-(((7-((2-butyloctanoyl)oxy)heptanoyl)oxy)methyl)propyl 4-(((2-(dimethylamino)ethyl)carbamoyl)oxy)decanoate] the “% Editing in Liver (0.05 mpk)” value (ALAS1 target site) was 1.9%, the “Encapsulation Efficiency (%)” value [1] was 96.8% and the “Diameter (nm)” value [2] was 54.1 nm. The PDI [2] was 0.09.

For CC/C=C\CCCCOC(CCC(=O)OCC(COC(=O)CCCCCCOC(=O)C(CCCC)CCCCCC)COC(=O)CCC(CCCCCC)OC(=O)NCCN(CC)CC)OCCCC/C=C\CC (centres unmarked) [Compound 7-41, 3-((4,4-bis(((Z)-oct-5-en-1-yl)oxy)butanoyl)oxy)-2-(((7-((2-butyloctanoyl)oxy)heptanoyl)oxy)methyl)propyl 4-(((2-(diethylamino)ethyl)carbamoyl)oxy)decanoate], the “% Editing in Liver (0.05 mpk)” value (ALAS1 target site) was 4.5%, the “Encapsulation Efficiency (%)” value [1] was 95.9% and the “Diameter (nm)” value [2] was 59.05 nm. For the same compound, the PDI [2] was 0.06.

With CC/C=C\CCCCOC(CCC(=O)OCC(COC(=O)CCCCCCOC(=O)C(CCCC)CCCCCC)COC(=O)CCC(CCCCCC)OC(=O)NCCCN(CC)CC)OCCCC/C=C\CC (centres unmarked) [Compound 7-42, 3-((4,4-bis(((Z)-oct-5-en-1-yl)oxy)butanoyl)oxy)-2-(((7-((2-butyloctanoyl)oxy)heptanoyl)oxy)methyl)propyl 4-(((3-(diethylamino)propyl)carbamoyl)oxy)decanoate] the “% Editing in Liver (0.05 mpk)” value (ALAS1 target site) was 7.3%, the “Encapsulation Efficiency (%)” value [1] was 97.2% and the “Diameter (nm)” value [2] was 74 nm. The PDI [2] was 0.13.

With CC/C=C\CCCCOC(CCC(=O)OCC(COC(=O)CCCCCCOC(=O)C(CCCC)CCCCCC)COC(=O)CCC(CCCCCC)OC(=O)NCCN1CCCCC1)OCCCC/C=C\CC (centres unmarked) [Compound 7-44, 3-((4,4-bis(((Z)-oct-5-en-1-yl)oxy)butanoyl)oxy)-2-(((7-((2-butyloctanoyl)oxy)heptanoyl)oxy)methyl)propyl 4-(((2-(piperidin-1-yl)ethyl)carbamoyl)oxy)decanoate] the “% Editing in Liver (0.05 mpk)” value (ALAS1 target site) was 0.1%, the “Encapsulation Efficiency (%)” value [1] was 89.2% and the “Diameter (nm)” value [2] was 68.8 nm. The PDI [2] was 0.08.

With CC/C=C\CCCCOC(CCC(=O)OCC(COC(=O)CCCCCCOC(=O)C(CCCC)CCCCCC)COC(=O)CCC(CCCCCC)OC(=O)OCCCN(CC)CC)OCCCC/C=C\CC (centres unmarked) [Compound 7-45, 3-((4,4-bis(((Z)-oct-5-en-1-yl)oxy)butanoyl)oxy)-2-(((7-((2-butyloctanoyl)oxy)heptanoyl)oxy)methyl)propyl 4-(((3-(diethylamino)propoxy)carbonyl)oxy)decanoate] the “% Editing in Liver (0.05 mpk)” value (ALAS1 target site) was 3.4%, the “Encapsulation Efficiency (%)” value [1] was 93.4% and the “Diameter (nm)” value [2] was 81.8 nm. It also gave a PDI [2] of 0.13.

In the case of CC/C=C\CCCCOC(CCC(=O)OCC(COC(=O)CCCCCCOC(=O)C(CCCC)CCCCCC)COC(=O)CCC(CCCCCC)OC(=O)OCC1CCCN(CC)C1)OCCCC/C=C\CC (centres unmarked) [Compound 7-46, 3-((4,4-bis(((Z)-oct-5-en-1-yl)oxy)butanoyl)oxy)-2-(((7-((2-butyloctanoyl)oxy)heptanoyl)oxy)methyl)propyl 4-((((1-ethylpiperidin-3-yl)methoxy)carbonyl)oxy)decanoate], the “% Editing in Liver (0.05 mpk)” value (ALAS1 target site) is reported as 1.1%, the “Encapsulation Efficiency (%)” value [1] is reported as 93.7% and the “Diameter (nm)” value [2] is reported as 82.35 nm. It also gave a PDI [2] of 0.13.
